Test results taken from patent US20250264484A1, “METHODS FOR IDENTIFYING AND TREATING DISEASES” (Genzyme Corporation, priority 2022, published 2025).

Key:
GCase [1] = biological target: T1, GCase (Mus musculus, UniProt P17439); assay: CBE dose titration in WT mice: GCase activity (4MU hydrolysis assay); type: in vivo; conditions: cortex and liver, 24 hours, 0.3-100 mg/kg CBE
T1 construct: GCase activity remaining 24 hours after administration of CBE was measured; from tissue; host or cells: cortex and liver of wild-type mice (Charles River Laboratories or Jackson Labs)
T1 sequence (P17439 20-515): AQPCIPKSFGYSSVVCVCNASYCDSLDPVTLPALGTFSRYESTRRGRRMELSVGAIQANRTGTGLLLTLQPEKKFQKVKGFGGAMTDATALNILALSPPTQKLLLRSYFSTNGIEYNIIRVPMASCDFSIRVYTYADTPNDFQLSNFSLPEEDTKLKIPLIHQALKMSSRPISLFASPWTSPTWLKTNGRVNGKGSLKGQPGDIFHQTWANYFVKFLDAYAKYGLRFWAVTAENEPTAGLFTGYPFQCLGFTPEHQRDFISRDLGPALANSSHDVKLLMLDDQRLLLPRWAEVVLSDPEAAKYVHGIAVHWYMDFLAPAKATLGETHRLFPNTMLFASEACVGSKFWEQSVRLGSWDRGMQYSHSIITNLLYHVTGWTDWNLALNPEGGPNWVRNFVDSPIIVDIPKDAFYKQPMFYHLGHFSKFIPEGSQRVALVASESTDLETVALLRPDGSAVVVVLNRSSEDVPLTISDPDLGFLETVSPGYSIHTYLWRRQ
Method: N=4 per group (8 for untreated and 100 mg/kg plasma). […] Error bars show SEM.

Lyso-GL1 levels = assay: CBE dose titration in WT mice: lyso-GL1 accumulation; type: in vivo; conditions: cortex, liver and plasma, 24 hours after CBE
Method: Lyso-GL1 was detected in cortex (FIG. 2A), liver (FIG. 2B), and plasma (FIG. 2C). N=4 per group (8 for untreated and 100 mg/kg plasma). Results for lyso-GL1 are μg/g wet tissue. […] Error bars show SEM.
A dose response to CBE was performed in wild-type (WT) mice (Charles River Laboratories or Jackson Labs). Concentrations between 0.3 mg/kg and 100 mg/kg of CBE were investigated. GCase activity remaining 24 hours after administration of CBE was measured using a 4-methylumbelliferone (4MU) hydrolysis assay. Briefly, cell lysates from different sample types were diluted into 0.1 M sodium acetate buffer, pH 4.5 containing 10 mM of synthetic substrate 4-methylumbelliferyl-β-D-glucopyranoside and incubated at 37° C. for 1 hour. The reaction was terminated by adding 0.5 volume of 1 M glycine buffer, pH 12.5. The fluorescence of the reaction was measured using a Spectramax fluorimeter (Ex365/Em445; Molecular Devices, Sunnyvale, CA, USA). A standard curve was generated using Cerezyme® (imiglucerase).

[2] = system: GL1 and lyso-GL1 accumulation; assay: CBE timecourse of lipid flux in Gba D409V/D409V, D409V/+ and +/+ mice; type: in vivo; conditions: single intraperitoneal CBE injection
Source text: For each plot, the top line (with squares) is the homozygous D409V mice, the middle line (with triangles pointing upwards) is the heterozygous mice, and the bottom line (triangles pointing downwards) is the wild-type mice. N=10 per group. Data are shown as mean±SEM.
It was investigated whether substrate accumulation could allow for discrimination between mice harboring different copy numbers of mutations in GBA1. Three mouse models were investigated: Gba^D409V/D409V, Gba^D409V/+, and Gba^+/+, which are homozygous for a loss of function D409V mutation in GBA1, heterozygous for that mutation, or WT for GBA1, respectively. The GCase substrate, glucosylceramide (GL1) was investigated in addition to glucosylsphingosine (lyso-GL1). Mice were administered a single dose of CBE and sacrificed after 3, 6, 24, 48, or 72 hours. Substrate accumulation and dissipation was measured over time.

[3] = system: lyso-GL1 and GL-1 accumulation; assay: CBE timecourse of lipid flux in wild-type mouse strains; type: in vivo; conditions: C57BL/6, BALB/cJ and FVB mice after CBE challenge
Method: GSL levels were measured in cortex (FIG. 4A), liver (FIG. 4B), and plasma (FIG. 4C). […] Data are shown as mean±SD.
Three different wild-type mouse strains (C57BL/6J, BALB/cJ, and FVB-Charles River Laboratories or Jackson Labs) were evaluated for GSL accumulation and restoration after CBE challenge. […] The CBE challenge time course was performed in these three different strains, measuring lyso-GL1 and GL-1 accumulation at 24, 48, and 72 hours after administration.

[4] = system: SHSY-5Y neuroblastoma cells; assay: Lipid response of SHSY-5Y neuroblastoma cells to CBE incubation; type: cell-based, human; conditions: 100 μM CBE for 24 hours
Source text: In each case, the lyso-GL1 levels without treatment are very low (left-hand bar, in black). Error bars show SD, and data are presented in relative (arbitrary) units, “AU”, which are normalized for cell number.
First, the response of human SHSY-5Y neuroblastoma cells to CBE was studied. Cells were either used without further changes (wild-type) or were modified to reduce or increase Gba activity (knock-down and over-expressed, respectively). The modification was effected by stable transfection with a plasmid expressing an siRNA targeting GBA (KD) or a plasmid constitutively overexpressing GBA (OE). Human SHSY-5Y neuroblastoma cells (Sigma) were incubated with 100 μM CBE (Toronto Research Chemicals) for 24 hours. Enzyme activity and lipid levels were measured at −24 hours (before CBE incubation), and at 0, 24, and 48 hours after CBE removal. […] A marked increase in enzyme activity was observed between the knock-down and wild-type cells, and between the wild-type and over-expressed cells.

[5] = system: human peripheral blood mononuclear cells (PBMCs); assay: CBE challenge in human PBMCs; type: cell-based
Method: PBMCs were obtained from blood samples (Stem Cell Technologies, catalog number 70025, lot number 2105417005, Donor ID CE0006419) using standard procedures. 25,000 cells were added to individual wells of a multi-well plate and allowed to acclimate for 24 hours before they were treated with 100 μM CBE for 24 hours. Culture medium was removed and replaced with fresh medium (without CBE), and lipids were extracted from the cells at time intervals of 0, 2, 4, 8, 16 and 24 hours. GL1 and lyso-GL1 levels were measured, as were levels of phosphatidylcholine (PC).

GCase [6] = biological target: T2, GCase (Homo sapiens, UniProt P04062); conditions: read-out: IC50 against GCase; cited from earlier work
T2 sequence (P04062 40-536): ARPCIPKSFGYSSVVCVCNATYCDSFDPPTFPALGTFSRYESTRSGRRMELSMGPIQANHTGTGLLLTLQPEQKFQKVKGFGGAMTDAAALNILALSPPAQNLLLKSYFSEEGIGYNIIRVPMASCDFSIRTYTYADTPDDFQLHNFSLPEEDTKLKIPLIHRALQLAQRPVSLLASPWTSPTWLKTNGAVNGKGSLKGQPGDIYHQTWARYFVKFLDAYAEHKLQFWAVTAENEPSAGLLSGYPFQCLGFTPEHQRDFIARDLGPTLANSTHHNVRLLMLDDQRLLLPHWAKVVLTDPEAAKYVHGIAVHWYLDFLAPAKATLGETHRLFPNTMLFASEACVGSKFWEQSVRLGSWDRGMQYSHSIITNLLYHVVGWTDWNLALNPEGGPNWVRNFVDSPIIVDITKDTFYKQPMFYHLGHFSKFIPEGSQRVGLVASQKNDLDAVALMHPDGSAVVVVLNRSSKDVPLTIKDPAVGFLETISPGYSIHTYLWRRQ

[7] = biological target: T3, non-lysosomal glucosylceramidase (Homo sapiens, UniProt Q9HCG7); conditions: range given jointly for three glycosidases; read-out: IC50 against non-lysosomal glucosylceramidase; cited from earlier work
T3 sequence (Q9HCG7 1-927): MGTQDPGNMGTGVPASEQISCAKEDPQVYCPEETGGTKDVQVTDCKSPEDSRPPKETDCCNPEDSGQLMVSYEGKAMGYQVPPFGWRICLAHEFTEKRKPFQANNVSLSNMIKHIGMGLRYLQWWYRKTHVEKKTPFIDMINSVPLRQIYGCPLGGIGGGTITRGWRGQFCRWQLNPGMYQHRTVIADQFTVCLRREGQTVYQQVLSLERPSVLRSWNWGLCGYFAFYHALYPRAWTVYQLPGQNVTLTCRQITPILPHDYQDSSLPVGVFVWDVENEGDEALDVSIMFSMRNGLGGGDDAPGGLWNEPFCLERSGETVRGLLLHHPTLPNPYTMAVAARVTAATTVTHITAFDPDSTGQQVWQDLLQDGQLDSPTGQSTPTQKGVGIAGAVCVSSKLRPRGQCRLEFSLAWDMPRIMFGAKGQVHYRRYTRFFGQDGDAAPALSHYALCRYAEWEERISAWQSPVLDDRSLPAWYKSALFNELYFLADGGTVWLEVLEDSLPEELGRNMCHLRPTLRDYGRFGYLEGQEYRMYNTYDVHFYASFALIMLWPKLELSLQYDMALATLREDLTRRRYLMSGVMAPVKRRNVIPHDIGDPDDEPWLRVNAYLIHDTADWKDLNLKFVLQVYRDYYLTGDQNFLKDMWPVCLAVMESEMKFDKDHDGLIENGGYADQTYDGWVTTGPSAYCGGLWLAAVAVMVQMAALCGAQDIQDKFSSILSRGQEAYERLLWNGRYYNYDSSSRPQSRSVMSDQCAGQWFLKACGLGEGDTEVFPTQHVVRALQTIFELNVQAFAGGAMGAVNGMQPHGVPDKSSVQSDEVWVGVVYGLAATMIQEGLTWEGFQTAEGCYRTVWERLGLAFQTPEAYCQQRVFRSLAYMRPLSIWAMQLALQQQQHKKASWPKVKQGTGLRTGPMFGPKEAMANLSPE

β-glucuronidase = biological target: T4, β-glucuronidase (Homo sapiens, UniProt P08236); conditions: range given jointly for three glycosidases; read-out: IC50 against β-glucuronidase; cited from earlier work
T4 sequence (P08236 23-651): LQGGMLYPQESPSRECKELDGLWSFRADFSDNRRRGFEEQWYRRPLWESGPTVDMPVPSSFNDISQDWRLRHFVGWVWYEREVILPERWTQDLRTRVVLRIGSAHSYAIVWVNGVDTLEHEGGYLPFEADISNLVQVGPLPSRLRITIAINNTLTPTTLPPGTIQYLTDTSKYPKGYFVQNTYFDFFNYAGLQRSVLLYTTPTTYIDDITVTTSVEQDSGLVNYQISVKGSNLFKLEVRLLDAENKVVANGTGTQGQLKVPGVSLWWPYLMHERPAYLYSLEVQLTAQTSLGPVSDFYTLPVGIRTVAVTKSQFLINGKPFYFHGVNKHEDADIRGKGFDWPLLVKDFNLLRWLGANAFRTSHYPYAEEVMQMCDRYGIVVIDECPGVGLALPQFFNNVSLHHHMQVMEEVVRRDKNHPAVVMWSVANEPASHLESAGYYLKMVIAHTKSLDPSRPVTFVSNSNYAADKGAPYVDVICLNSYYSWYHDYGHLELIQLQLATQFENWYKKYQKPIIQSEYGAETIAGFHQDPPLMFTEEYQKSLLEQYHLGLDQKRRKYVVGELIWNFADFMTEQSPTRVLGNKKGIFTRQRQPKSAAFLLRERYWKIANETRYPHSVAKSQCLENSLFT

α-glucosidases = conditions: range given jointly for three glycosidases; read-out: IC50 against α-glucosidases; cited from earlier work
[8] = system: SHSY-5Y neuroblastoma cells; conditions: wild-type cells

Compound | GCase activity remaining after administration of CBE (GCase [1]) | Lyso-GL1 levels (Lyso-GL1 levels) | time of peak substrate accumulation [2] | time of peak glycosphingolipid levels [3] | GL1 and lyso-GL1 accumulation upon CBE treatment ([4]; KD, WT and OE SHSY-5Y cells) | total GL1 levels after treatment ([4]; wild-type SHSY-5Y cells) | increase of GL1 levels after CBE treatment ([5]; 100 μM CBE for 24 hours) | phosphatidylcholine (PC) levels ([5]; 100 μM CBE for 24 hours) | GL1 levels after CBE treatment ([5]; 100 μM CBE for 24 hours, baseline about 2 ng/ml) | lyso-GL1 levels after CBE treatment ([5]; 100 μM CBE for 24 hours, from nearly undetectable levels) | time for GL1 and lyso-GL1 levels to normalize after treatment ([5]; normalized to PC levels) | IC50 (GCase [6]) | IC50 [7] | IC50 (β-glucuronidase) | IC50 (α-glucosidases) | increase of response (dynamic range) on incubation with sodium taurocholate [8]
O[C@H]1[C@H](O)[C@@H](O)[C@@H]2O[C@@H]2[C@@H]1O [CBE, conduritol-β epoxide] | dose-dependent reduction in enzyme activity | increased with increasing CBE dose beyond 30 mg/kg | 24 to 48 h | 24 h | inversely proportional to the level of GBA1 expression | No significant difference | about 6 fold | largely unaffected | about 12 ng/ml | about 0.08 ng/ml | 16 h | ~0.3 µM | 200 to 2000 µM | 200 to 2000 µM | 200 to 2000 µM | 
C[C@H](CCC(=O)NCCS(=O)(=O)O)[C@H]1CC[C@H]2[C@@H]3[C@H](O)C[C@@H]4C[C@H](O)CC[C@]4(C)[C@H]3C[C@H](O)[C@]12C [sodium taurocholate] |  |  |  |  |  |  |  |  |  |  |  |  |  |  |  | ~10 factor
